4 molecules from patent US7592458B2, “Dermal anesthetic compounds and pharmaceutical compositions for inducing local anesthesia and mitigating neuropathic pain” (priority 2006, dated 2009) can be followed below.

For this experiment, the system named is guinea pigs. Description: Local anesthetic activity (infiltration anesthesia), pin-prick method after intradermal injection. The class given is in vivo, guinea pig. The following applies: 0.1 ml intradermal.

Structures can show the parent of a compound that is named as a salt. Marks after values point to notes of the source that are not given here.

In the case of `CCCCN1CCCCC1CCN(c1ccccc1)C1CCc2ccccc2C1` (stereo not drawn) [Bu-CLAC-34•HCl], the “Dermal anesthesia after intradermal injection: non-responding pinpricks of 36” value (0.05%, 15 min) is 36/36; the “Dermal anesthesia after intradermal injection: non-responding pinpricks of 36” value (0.05%, 30 min) was 36/36; the “Dermal anesthesia after intradermal injection: non-responding pinpricks of 36” value (0.05%, 60 min) is 36/36; the “Dermal anesthesia after intradermal injection: non-responding pinpricks of 36” value (0.05%, 90 min) was 36/36; the “Dermal anesthesia after intradermal injection: non-responding pinpricks of 36” value (0.05%, 120 min) is 36/36; the “Dermal anesthesia after intradermal injection: non-responding pinpricks of 36” value (0.10%, 15 min) is 36/36. The “Dermal anesthesia after intradermal injection: non-responding pinpricks of 36” value is 36/36 (0.10%, 30 min); 36/36 (0.10%, 60 min); 36/36 (0.10%, 90 min); 36/36 (0.10%, 120 min).
Regarding `c1ccc(N(CCC2CCCCN2)C2CCc3ccccc3C2)cc1` (stereo not drawn) [CLAC-34•HCl], the “Dermal anesthesia after intradermal injection: non-responding pinpricks of 36” value (0.05%, 15 min) is reported as 35/36*; the “Dermal anesthesia after intradermal injection: non-responding pinpricks of 36” value (0.05%, 30 min) is 36/36**; the “Dermal anesthesia after intradermal injection: non-responding pinpricks of 36” value (0.05%, 60 min) was 6/36; the “Dermal anesthesia after intradermal injection: non-responding pinpricks of 36” value (0.05%, 90 min) was 36/36; the “Dermal anesthesia after intradermal injection: non-responding pinpricks of 36” value (0.05%, 120 min) is on record as 36/36; the “Dermal anesthesia after intradermal injection: non-responding pinpricks of 36” value (0.10%, 15 min) was 36/36. Also, the “Dermal anesthesia after intradermal injection: non-responding pinpricks of 36” value by setting is: (0.10%, 30 min) 36/36; (0.10%, 60 min) 36/36; (0.10%, 90 min) 36/36; (0.10%, 120 min) 36/36.
For `CCCN(CCC)CCN(c1ccccc1)C1CCc2ccccc2C1` (stereo not drawn) [CLAC-PP•HCl], the “Dermal anesthesia after intradermal injection: non-responding pinpricks of 36” value is reported as 36/36 (0.05%, 15 min); 36/36 (0.05%, 30 min); 36/36 (0.05%, 60 min); 36/36 (0.05%, 90 min); 36/36 (0.05%, 120 min); 36/36 (0.10%, 15 min). For the same molecule, the “Dermal anesthesia after intradermal injection: non-responding pinpricks of 36” value is, setting by setting: (0.10%, 30 min) 36/36; (0.10%, 60 min) 36/36; (0.10%, 90 min) 36/36; (0.10%, 120 min) 36/36.
`CCN(CC)CC(=O)Nc1c(C)cccc1C` [Lidocaine.HCl, lidocaine, reference compound]: the “Dermal anesthesia after intradermal injection: non-responding pinpricks of 36” value runs as follows: (0.25%, 15 min) 31/36; (0.25%, 30 min) 21/36; (0.25%, 60 min) 6/36; (0.25%, 90 min) 4/36; (0.25%, 120 min) 1/36; (0.50%, 15 min) 24/36. The “Dermal anesthesia after intradermal injection: non-responding pinpricks of 36” value is, setting by setting: (0.50%, 30 min) 18/36; (0.50%, 60 min) 11/36; (0.50%, 90 min) 10/36; (0.50%, 120 min) 9/36; (1.00%, 15 min) 32/36; (1.00%, 30 min) 28/36. Moreover, the “Dermal anesthesia after intradermal injection: non-responding pinpricks of 36” value runs as follows: (1.00%, 60 min) 9/36; (1.00%, 90 min) 8/36; (1.00%, 120 min) 6/36.
